# In publication PMC10983001, “Development of Cytotoxic GW7604-Zeise’s Salt Conjugates as Multitarget Compounds with Selectivity for Estrogen Receptor- Positive Tumor Cells” (Journal of Medicinal Chemistry, 2024):
# Experiments:
# nuclei of SKBr3 cells = assay: Nuclear uptake (platinum by HR-CS-AAS), SKBr3; type: cell-based, human; details: SKBr3, 20 μM, 24 h
# Procedure: (§1) Fluorescence in the nuclei is not detectable. Therefore, the nuclei were analyzed for their platinum content using HR-CS-AAS.[25]
# (§2) After thawing of the cell/nuclei pellets, they were resuspended in ultrapure water (Siemens LaboStar, Günzburg, Germany; 300 μL) and lyzed with a sonotrode (Bandelin Sonoplus, Berlin, Germany; parameters 20 s, 9 cycles, 80% power). Graphite furnace (GF) AAS was used to quantify the lysates concerning their content of platinum (λ = 265.9450 nm). For this purpose, a contrAA 700 High-Resolution-Continous Source AAS (Analytik Jena, Jena, Germany) was employed, while atomization took place by electrothermal heating of graphite tubes with an inserted platform (Analytik Jena, Jena, Germany). […] The spectrometer was monitored with the ASpect CS software, version 2.3.1.0 (Analytik Jena, Jena, Germany). For all runs, the mean integrated absorbance was determined after three injections of each standard or sample. […] Each cell/nuclei lysate was quantified concerning its protein content following the method of Bradford[71] in order to express the uptake as the amount of compound (pmol) in the lysate relative to its protein mass (mg). […] All standards and lysates were measured in duplicate. After incubating for 5 min at rt, the absorbance (λ = 595 nm) was read on a microplate reader (Tecan Safire 2, Männedorf, Switzerland). […]
# ERα in MCF-7 cells = assay: Western blot analysis of ER downregulation; type: cell-based, human; details: MCF-7, 20 μM, 24 h
# Procedure: The exponentially growing cells were seeded at a density of 2.5 × 10^6 (MCF-7) and 3.0 × 10^6 (SKBr3) cells into 75 cm^2 flasks. The cells were incubated for 24 h in a humidified atmosphere (5% CO2/95% air) at 37 °C. For downregulation experiments, a stock solution of GW7604-Pent-PtCl3 in DMF was freshly prepared and diluted with DMEM containing 10% FCS to the desired concentration [final DMF concentration of 0.1% (v/v), final complex concentration of 20 μM]. The medium in the flasks was replaced with fresh cell culture medium containing the compound, and the flasks were incubated in a humidified atmosphere at 37 °C for 24 h. Afterward, cells were harvested (cell scratcher), and samples were lysed using a modified radio immunoprecipitation assay buffer [50 mM of TRIS (pH = 8.0), 150 mM NaCl, 0.5% NP-40, 50 mM NaF, 1 mM […], 1 mM phenylmethylsulfonyl fluoride, and protease inhibitors (EDTA-free; Roche, Basel, Switzerland)]. Total protein concentration was determined by employing the Bradford assay as described above, and samples were analyzed on the JESS ProteinSimple (Bio-Techne, Minneapolis, MN, USA) according to the manufacturer’s protocol. The following antibodies were used: GAPDH (no. 2118S, cell signaling), ERα (no. 8644S, cell signaling), and COX-2 (no. 12282, cell signaling). All primary antibodies were diluted with antibody diluents provided by ProteinSimple.
# [1] = Stability in organic solutions (1H NMR); type: physicochemical; details: for amount of free ligand: DMF-d7, rt
# Procedure: Furthermore, it needs to be clarified whether organic solvent molecules are capable of ligand exchange reactions at the PtCl3 unit and form corresponding reaction/degradation products of the GW7604-Alk-PtCl3 complexes. Therefore, ^1H NMR experiments were performed with noncoordinating [e.g., acetone-d6, methanol-d4] and coordinating [e.g., acetonitrile-d3 , DMF-d7, dimethyl sulfoxide-d6 (DMSO-d6)] solvents. It should further be assessed whether the solvents are suitable for preparing stock solutions for structural characterization or in vitro testing.
# The solutions (concentrations of 4.5–5.0 mM) were stored in NMR tubes at room temperature (rt) after being purged with argon.
# nuclei of MCF-7 cells = assay: Nuclear uptake (platinum by HR-CS-AAS), MCF-7; type: cell-based, human; details: MCF-7, 20 μM, 24 h; pmol complex/mg protein
# Procedure: as §1, §2
compound,measurement,setting,value
"CCC(=C(c1ccc(O)cc1)c1ccc(C=CC(=O)OCCC[CH]2[CH2][Pt-]2([Cl])([Cl])[Cl])cc1)c1ccccc1.[K+] (mixture of isomers) [GW7604-Pent-PtCl3, Potassium trichlorido[η^2-(pent-4-en-1-yl (E)-3-(4-((E/Z)-1-(4-hydroxyphenyl)-2-phenylbut-1-en-1-yl)phenyl)acrylate)]platinate(II)]",platinum content in the nuclei,nuclei of SKBr3 cells,96 pmol/mg
same,ER downregulation (SERD effect),ERα in MCF-7 cells,nor downregulated the ER content
same,amount of free ligand,[1]; 9 days,about 33%
same,amount of free ligand,[1]; 14 days,about 40%
same,stability in DMSO-d6,"[1]; DMSO-d6, measured after 5 min / immediately after dissolution",only signals of the free GW7604-Pent ligand
same,time to complete degradation of the complex,"[1]; acetonitrile-d3, rt",≤ 23 days
same,complex that released the free ligand,"[1]; acetonitrile-d3, rt, 4 days",about 25%
same,complex that released the free ligand,"[1]; acetonitrile-d3, rt, 9 days",about 35%
same,platinum content in the nuclei,nuclei of MCF-7 cells,145 pmol/mg
